# In patent US11260057B2, “Combination comprising palbociclib and 6-(2,4-dichlorophenyl)-5-[4-[(3S)-1-(3-fluoropropyl)pyrrolidin-3-yl]oxyphenyl]-8,9-dihydro-7H-benzo[7] annulene-2-carboxylic acid and its use for the treatment of cancer” (SANOFI, priority 2017, dated 2022):
# How the values were obtained:
# [1] = system: MCF7-Y537S human breast cancer cell line xenograft; experiment: Anti-tumor efficacy against subcutaneous MCF7-Y537S human breast cancer cell line xenograft in female nude mice; format: in vivo; parameters: key to Biological Interpretation: Active: ΔT/ΔC≤40% is considered as therapeutically active; Very active: ΔT/ΔC<0% is considered as tumor regression (very active); Inactive: ΔT/ΔC>40% is considered as therapeutically inactive; conditions: for Tumor volume changes from baseline: Median: compound (1) 5 mg/kg BID, palbociclib 100 mg/kg QD, PO; for Biological Interpretation: based on ΔT/ΔC at day 51; for Biological Interpretation / ΔT/ΔC in % at day 51 / Regressions Complete / Regressions Partial: compound (1) 5 mg/kg PO BID, palbociclib 100 mg/kg PO QD; for ΔT/ΔC in % at day 51: days 22 to 51; for Regressions Complete: mice with complete regression/evaluable mice; for Regressions Complete / Regressions Partial: 30 days; for Regressions Partial: mice with partial regression/evaluable mice
# Description: In the present study, the anti-tumor efficacy of 6-(2,4-dichlorophenyl)-5-[4-[(3S)-1-(3-fluoropropyl)pyrrolidin-3-yl]oxyphenyl]-8,9-dihydro-7H-benzo[7]annulene-2-carboxylic acid (“compound (1)”), combined with the cyclin-dependent kinase 4 (CDK4) inhibitor palbociclib, was investigated after 30 days treatment against a subcutaneous MCF7-Y537S human breast cancer cell line xenograft in female nude mice.
# The treated groups included compound (1) at 5 mg/kg alone, palbociclib at 100 mg/kg alone, and the combination of compound (1) and palbociclib at the same dose and regime.
# Compound (1) was orally dosed twice a day (BID) and palbociclib was orally dosed once a day (QD) for 30 days. Anti-tumor efficacy was evaluated by tumor volume measurement.
# Female athymic nude mice were obtained from Harlan (Indianapolis, Ind., USA). Animals were allowed to acclimate for at least four days before the study enrollment. Mice were 12 to 13 weeks old and weighed between 20.2 and 27.3 grams at the beginning of the treatments. These animals were housed under conditions outlined in the NIH Guide for Care and Use of Laboratory Animals in compliance with the USDA Laboratory Animal Welfare Act.
# Parental MCF7 cells were obtained from the American Type Culture Collection (ATCC® HTB-22™). MCF7-Y537S (ESR1) cell line was MCF7 cells expressing the ER.Y537S variant that was generated by Sanofi Biology Discovery Group. Y537S mutation was introduced in ESR1 construct (GenBank NM_000125.3) by site directed mutagenesis (Toy W. et al., Cancer Discovery, 2017, 7, 277-287). The construct was transfected in MCF7 cells which were selected for their growth in absence of estradiol. MCF-Y537S is an ESR1 mutation that confers estrogen-independent activity to ERα (Estrogen Receptor alpha) and contributes to endocrine resistant disease (Robinson D. R. et al., Nat Genet., 2013, 45 (12), 1446-1451). The cells were grown in Eagle's Minimum Essential Medium (EMEM) supplemented with 10% fetal bovine serum (FBS), human Insulin, in 5% CO2 at 37° C. The cells were harvested in 0.25% Trypsin EDTA and washed by Dulbecco's Phosphate Buffered Saline (DPBS) and re-suspended in DPBS with 50% matrigel (Becton Dickinson catalog No. 356234, lot No. 32277). The cells (20×10^6 cells/per mouse) were subcutaneously (SC) implanted into the right flank of female nude mice.
# When the MCF7-Y537S tumors were established, the tumors were reserved as tumor stocks for fragment implantation. The tumors were serially propagated through fragment tissue transplantation subcutaneously. The fragment tumor tissues were subcutaneously implanted into the right flank of female nude mice. 50 mice were assigned in this experiment.
# Compound (1) and palbociclib (commercially available, marketed under the tradename Ibrance®) were formulated as follows: […]
# Compound (1) was prepared in Vehicle A, then Solutol HS15 (purchased from Sigma) was added to the final concentration 5%, and the solution was left under stirring for an hour for complete dissolution. After that, vehicle B was added. The final pH was 5.5.
# Palbociclib was prepared in Vehicle A, then Solutol HS15 was added to the final concentration 5%, and the solution was left under stirring for an hour for complete dissolution. After that, vehicle B was added. The final pH was 5.5.
# The animals required for experiment (plus extra) were pooled and implanted with MCF7-Y537S tumor fragment tissues on day 0. On day 21 post implantation, the mice were pooled and randomly distributed to the treatment and control groups (10 mice per group), where median tumor volumes for each group ranged from 202.5 to 211.5 mm^3. Treatments of compound (1) and palbociclib were initiated on day 22. Compound (1) was orally administered at 5 mg/kg BID (at least 5 hours apart) and palbociclib was orally administered at 100 mg/kg QD, for 30 days. Animal body weight was assessed daily.
# The dosages are expressed in mg/kg and based on daily body weight per animal. Vehicle treated animals were used as controls. […]
# [2] = Tolerability (body weight change, deaths) in the MCF7-Y537S xenograft study in nude mice; format: in vivo; conditions: compound (1) 5 mg/kg PO BID, palbociclib 100 mg/kg PO QD; for Average body weight change in % per group at nadir: days 22 to 51 (30 days); for day of nadir (of average body weight change): day post implantation, days 22 to 51; for Unscheduled death (Day of death): dead/total mice, footnote: non-drug related death or terminations, 30 days
# Description: The animals required for experiment (plus extra) were pooled and implanted with MCF7-Y537S tumor fragment tissues on day 0. […] Animal body weight was assessed daily.
# The dosages are expressed in mg/kg and based on daily body weight per animal. Vehicle treated animals were used as controls. Mice were checked daily and adverse clinical reactions noted. Individual mice were weighed daily until the end of the experiment. Mice would be euthanized when morbid or weight loss ≥20% was observed. Tumors were measured with a caliper twice weekly until final sacrifice. When a tumor size reached approximately 2000 mm^3 or when there are animal health issues (40% area of a tumor ulcerated), animals would be euthanized and date of death recorded. Solid tumor volumes were estimated from two dimensional tumor measurements and calculated according to the following equation: […]
# Animal body weight included the tumor weight.
Structure (SMILES),Tumor volume changes from baseline: Median ([1]; Day 27) [mm^3],Tumor volume changes from baseline: Median ([1]; Day 30) [mm^3],Tumor volume changes from baseline: Median ([1]; Day 34) [mm^3],Tumor volume changes from baseline: Median ([1]; Day 37) [mm^3],Tumor volume changes from baseline: Median ([1]; Day 41) [mm^3],Tumor volume changes from baseline: Median ([1]; Day 44) [mm^3],Tumor volume changes from baseline: Median ([1]; Day 49) [mm^3],Tumor volume changes from baseline: Median ([1]; Day 51) [mm^3],Biological Interpretation [1],ΔT/ΔC in % at day 51 [1] [%],Regressions Complete [1],Regressions Partial [1],Average body weight change in % per group at nadir [2] [%],day of nadir (of average body weight change) [2],Unscheduled death (Day of death) [2]
"O=C(O)c1ccc2c(c1)CCCC(c1ccc(Cl)cc1Cl)=C2c1ccc(O[C@H]2CCN(CCCF)C2)cc1 [Compound (1), 6-(2,4-dichlorophenyl)-5-[4-[(3S)-1-(3-fluoropropyl)pyrrolidin-3-yl]oxyphenyl]-8,9-dihydro-7H-benzo[7]annulene-2-carboxylic acid]",114.0,171.5,270.5,336.0,440.0,498.5,727.5,782.0,Inactive,59,0/8,0/8,−1.7,22,2/10
"CC(=O)c1c(C)c2cnc(Nc3ccc(N4CCNCC4)cn3)nc2n(C2CCCC2)c1=O [Palbociclib, 6-acetyl-8-cyclopentyl-5-methyl-2-[5-(1-piperazinyl)pyridine-2-ylamino]pyrido[2,3-d]pyrimidin-7(8H)-one]",68.5,98.0,121.5,132.0,193.5,249.5,298.5,363.5,Active,27,0/10,0/10,−2.0,22,0/10
